Where two headings read alike, the source gives them in different places.
How the values were obtained:
[1] = tested on: thoracodorsal arteries (TDA); experiment: Pressure myography of TDAs electroporated with Panx1 WT or YLK>AAA plasmid; assay type: cell-based, mouse; conditions: for EC50: Mus musculus, read-out: EC50 of phenylephrine-induced constriction
Procedure: The contractile responses of pressurized thoracodorsal arteries (TDA) were measured as previously described. Briefly, TDA were isolated and placed in cold Krebs-HEPES until cannulation in a pressure arteriograph (Danish MyoTechnology). After a 30 minute equilibration period, cumulative concentrations of contractile agonists were applied to the TDA pressurized at 80 mmHg, and the vessel was visualized with an Olympus IX-71 microscope attached to a Hamamatsu EM-CCD camera coupled to Slidebook imaging software. […] Lastly, maximal diameter was measured at the end of each experiment in calcium-free Krebs-HEPES supplemented with EGTA (1 mmol/L) and sodium nitroprusside (10 μmol/L). In cases where the vessels were not constricting to the contractile agonist, their viability was assessed by applying 40 mM KCl and only TDA reaching 30% of the maximal diameter were considered for analysis. The contractile responses, as well as the basal tone, are expressed as a percentage of the maximal diameter.
Vessel transfection was performed as previously described by us. Briefly, after isolation, TDA were placed in cold, sterile RPMI supplemented with penicillin […] (Gibco), CaCl2 (2 mmol/L) and 1% BSA. Vessels were transferred to a cuvette containing 100 μL of Nucleofector solution (Lonza) containing 5 μg of plasmid, and subjected to electroporation. Arteries were then placed in supplemented RPMI media in an incubator for 14 to 18 hours until cannulation in the pressure arteriograph as described above.
We further tested the importance of the YLK sequence within the intracellular loop of Panx1 on phenylephrine-induced vasoconstriction using rescue experiments with intact arteries from mice lacking endogenous Panx1. We reintroduced Panx1 into the SMCs of TDAs from Cre^+/Panx1^F1 mice that had received tamoxifen by selectively transfecting these cells with a plasmid encoding Panx1^WT.

[2] = tested on: abdominal aortic rings; experiment: Wire myography of abdominal aortic rings; assay type: cell-based, mouse; conditions: for EC50: Mus musculus, read-out: EC50 of phenylephrine, aortic ring contraction
[3] = tested on: thoracodorsal arteries (TDA)
[4] = target: T1, Panx1 (Mus musculus, UniProt Q9JIP4); experiment: ATP release from HEK293 cells cotransfected with mPanx1 and α1DAR; assay type: cell-based; conditions: peptide 3 μmol/L, phenylephrine 100 μmol/L
T1 construct: we progressively substituted amino acids in this region of full-length Panx1 with alanine residues; HA; expressed in transfected cells; host or cells: HEK293T cells, transient co-transfection with alpha1DAR plasmid (Origene, NM_013460, C-terminal Myc-DDK)
Procedure: Human Embryonic Kidney (HEK) 293T cells were cultured as previously described, and were used until passage 20. For ATP measurements, 50,000 cells/well were seeded in 24 well plates pre-coated with 0.01% poly-L-lysine, and transfected using Lipofectamine 2000 (Invitrogen) according to the manufacturer protocol. Briefly, 0.4 μg of α1DAR and 0.4 μg of Panx1^WT, Panx1^KYP>AAA, Panx1^IVEQ>AAA or Panx1^YLK>AAA plasmids were added to each well along with 2 μl of Lipofectamine 2000. For electrophysiology measurements, 4 μg of α1DAR plasmid, 2 μg of Panx1^WT, Panx1^KYP>AAA, Panx1^IVEQ>AAA or Panx1^YLK>AAA plasmids, and 0.5 μg of GFP plasmid were mixed with 10 μl Lipofectamine 2000 and added to a well of 6-well plate seeded with ˜70% confluent HEK cells. Cells were split the next morning and plated onto a glass coverslip for recording. […]
The ectonucleotidase inhibitor ARL67156 (300 μmol/L) was applied to each well. […] The ATP concentration was measured by adding 50 μL of luciferin:luciferase reagent (ATP bioluminescence assay kit HSII; Roche), which was injected into each well and the luminescence was immediately recorded. Data are expressed as a percent increase in ATP concentration compared to unstimulated condition. […] Data were analyzed using a Kruskall Wallis test (non-parametric one-way ANOVA) followed by Dunn's post-hoc test.

[5] = tested on: mice; experiment: Cecal ligation puncture (CLP) model of sepsis; assay type: in vivo, mouse
Source text: Knockout of Panx1 specifically from the endothelium or treatment of mice with PanX both reversed the decreased in heat rate typically observed after induction of sepsis. […] Knockout of Panx1 specifically from the endothelium or treatment of mice with PanX both reversed the increased level of blood urea nitrogen, which is due in large part to increased vein permeability in sepsis. The three groups in each graph are Control (left bar), Panx1 Endothelial Cell Knockout Mouse (middle bar), and Control+IL2 (PanX) Peptide treatment.

[6] = tested on: resistance arterioles; experiment: Diameter of resistance arterioles isolated from adipose tissue of hypertensive subjects; assay type: cell-based, human; conditions: arterioles from treatment resistant hypertension patients
Source text: The resistance arterioles were isolated from adipose tissue. Treatment resistant hypertension: >3 continue to have high blood pressure.

[7] = TDAs from Cre^+/Panx1^FL with tamoxifen + Panx1^WT
[8] = TDAs from Cre^+/Panx1^FL with tamoxifen + Panx1^YLK>AAA
[9] = TDAs from Cre^+/Panx1^FL with tamoxifen, electroporated without plasmid
[10] = TDAs from Cre^+/Panx1^FL, no tamoxifen, electroporated without plasmid
[11] = aortic rings from Cre^+/Panx1^FL with tamoxifen
[12] = aortic rings from Cre^+/Panx1^FL, peanut oil

T1 sequence (Q9JIP4 whole entry): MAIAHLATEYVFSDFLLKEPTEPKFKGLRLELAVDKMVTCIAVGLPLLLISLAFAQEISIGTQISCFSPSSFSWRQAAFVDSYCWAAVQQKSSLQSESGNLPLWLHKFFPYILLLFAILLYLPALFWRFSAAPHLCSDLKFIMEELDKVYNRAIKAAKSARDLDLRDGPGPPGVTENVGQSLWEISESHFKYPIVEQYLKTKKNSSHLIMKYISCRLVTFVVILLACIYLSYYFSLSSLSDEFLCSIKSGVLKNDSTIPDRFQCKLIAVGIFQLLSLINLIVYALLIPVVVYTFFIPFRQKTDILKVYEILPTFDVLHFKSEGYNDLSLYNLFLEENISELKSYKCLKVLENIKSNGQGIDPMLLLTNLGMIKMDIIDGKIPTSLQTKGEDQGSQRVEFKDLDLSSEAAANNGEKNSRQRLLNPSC

Compound: CNC[C@H](O)c1cccc(O)c1 [Phenylephrine, phenylephrine]
- EC50 [1, 7]: 450 ± 330 nM
- EC50 [1, 8]: 630 ± 530 nM
- EC50 [1, 9]: 1130 ± 770 nM
- EC50 [1, 10]: 640 ± 230 nM
- EMAX of phenylephrine-induced constriction [1, 7]: 34.2 ± 6.15 percentage of maximal diameter
- EMAX of phenylephrine-induced constriction [1, 8]: 56.9 ± 5.84 percentage of maximal diameter
- EMAX of phenylephrine-induced constriction [1, 9]: 57.5 ± 9.20 percentage of maximal diameter
- EMAX of phenylephrine-induced constriction [1, 10]: 32.9 ± 4.85 percentage of maximal diameter
- EC50 [2, 11]: 3200 ± 320 nM
- EC50 [2, 12]: 3390 ± 380 nM
- EMAX of phenylephrine, aortic ring contraction [2, 11]: 343.4 ± 69.4 percentage of constriction to KCl
- EMAX of phenylephrine, aortic ring contraction [2, 12]: 368.8 ± 78.7 percentage of constriction to KCl
- EMAX of agonist for TDA constriction ([3]; TDAs from Cre^+/Panx1^FL mice, tamoxifen-injected (SMC Panx1 knockout)): 69.1 ± 3.06 percentage of maximal diameter
- EMAX of agonist for TDA constriction ([3]; TDAs from Cre^+/Panx1^FL mice, tamoxifen-injected (SMC Panx1 knockout), listed as phenylephrine): 69.1±3.06 percentage of maximal diameter
- EMAX of agonist for TDA constriction ([3]; TDAs from Cre^+/Panx1^WT mice, tamoxifen-injected): 53.5 ± 4.91 percentage of maximal diameter
- EMAX of agonist for TDA constriction ([3]; TDAs from Cre^−/Panx1^FL mice, tamoxifen-injected): 46.3 ± 5.94 percentage of maximal diameter
- EMAX of agonist for TDA constriction ([3]; TDAs from Cre^−/Panx1^WT mice, tamoxifen-injected): 51.8 ± 2.66 percentage of maximal diameter
- EMAX of agonist for TDA constriction ([3]; TDAs isolated from the three control genotypes): approximately 50 % of maximal diameter

Compound: KYPIVEQYLKYGRKKQRRR [IL2]
- effect on phenylephrine-induced ATP release [4]: significantly decreased
- effect on decreased heart rate after induction of sepsis [5]: reversed
- effect on increased blood urea nitrogen after induction of sepsis [5]: reversed
- effect on hyperconstriction of resistance arterioles [6]: significantly reduces hyperconstriction

Compound: scrambled intracellular loop 2 IYLYVEQKPY (SEQ ID NO: 7) linked with a TAT sequence [Scrambled IL2]
- effect on phenylephrine-induced ATP release [4]: no effect
